Patent US8614178B2, “Pharmaceutical composition for treatment of dry eye syndrome” (Novaliq GmbH, priority 2009, dated 2013)
Where two headings read alike, the source gives them in different places. Each block holds one compound with its values, some of them ahead of it.

Legend:
[1] = Refractive index determination; settings: neat SFA
[2] = tested on: rabbit eyes
[3] = tested on: Sjögren syndrome patients; settings: oral, clinical studies; cited from earlier work
[4] = tested on: rabbit eyes; experiment: Ex-vivo eye irritation test (EVEIT), abraded cornea
[5] = Droplet size (weight and volume) from three droppers; format: physicochemical; settings: 25° C.; for Droplet volume: calculated; for Droplet weight: mean ± SD
Method: The droplet size of selected SFA's in terms of weight and volume of droplets from three droppers was determined and compared to that of purified water. The devices used for dispensing the droplets were (a) a 2 mL Pasteur pipette (wall thickness 0.53 mm; external tip diameter: 1.50 mm; length: 150 mm) made of glass, (b) a 20 G (0.9 mm×50 mm) injection needle, and (c) a dropper from a commercial eye drops product (Hylo-Vision). The droplet weights were measured at 25° C. using a laboratory balance; the volumes were calculated. Each test was performed 10 times.

Compound: CCCCCCCC(F)(F)C(F)(F)C(F)(F)C(F)(F)C(F)(F)C(F)(F)F [Example F6H7]
Refractive index [1]: 1.3366

Compound: CCCCC(F)(F)C(F)(F)C(F)(F)C(F)(F)F [Example F4H4]
Refractive index [1]: 1.308

Compound: CCCCC(F)(F)C(F)(F)C(F)(F)C(F)(F)C(F)(F)C(F)(F)F [Example F6H4]
Refractive index [1]: 1.306

Compound: benzalkonium chloride [BAC]
Healing of corneal lesions [2]: rapid growth of the lesions eventually leading to a complete disintegration of the corneal epithelium
Morphological and histological evaluation of cornea [2]: complete disintegration of the corneal epithelium, but also a major impairment of the complete cornea even including the endothelium

Compound: CC1OC2(CS1)CN1CCC2CC1 (stereo not shown) [Cevimeline]
Effect on DED symptoms [3]: effective in the management of symptoms associated with keratoconjunctivitis sicca of the Sjögren type

Compound: CCCCCCC(F)(F)C(F)(F)C(F)(F)C(F)(F)C(F)(F)C(F)(F)F [Example F6H6]
Refractive index [1]: 1.3224

Compound: CCC(F)(F)C(F)(F)C(F)(F)C(F)(F)C(F)(F)C(F)(F)F [Example F6H2]
Refractive index [1]: 1.295

Compound: CCCCCC(F)(F)C(F)(F)C(F)(F)C(F)(F)F [Example F4H5]
Refractive index [1]: 1.3204
Penetration into the cornea ([4]; OCT imaging): no indication of penetration of F4H5 into the cornea
Morphological and histological evaluation of cornea ([4]; end of test): had not only healed very well, but were also entirely clear at the end of the tests, with healthy and smooth surface morphology
Physiological tolerability ([4]; in words): better tolerated than culture medium
Droplet volume ([5]; Eye dropper (Hylo-Vision)): 9.6 ± 0.2 µL
Droplet weight ([5]; Eye dropper (Hylo-Vision)): 12.4 ± 0.2 mg
Droplet volume ([5]; Glass pipette): 4.7 ± 0.3 µL
Droplet weight ([5]; Glass pipette, 10 tests): 6.0 ± 0.4 mg
Droplet volume ([5]; Injection needle 20 G): 2.0 ± 0.3 µL
Droplet weight ([5]; Injection needle 20 G): 2.6 ± 0.4 mg

Compound: O [Water, water, reference compound]
Droplet volume ([5]; Eye dropper (Hylo-Vision)): 36.1 ± 2.2 µL
Droplet weight ([5]; Eye dropper (Hylo-Vision)): 36.0 ± 2.2 mg
Droplet volume ([5]; Glass pipette): 31.3 ± 1.4 µL
Droplet weight ([5]; Glass pipette, 10 tests): 31.2 ± 1.4 mg
Droplet volume ([5]; Injection needle 20 G): 11.1 ± 0.9 µL
Droplet weight ([5]; Injection needle 20 G): 11.0 ± 0.9 mg

Compound: CC[C@@H]1C(=O)OC[C@@H]1Cc1cncn1C [pilocarpine]
Effect on DED symptoms [3]: significantly improved DED symptoms

Second part, led by results:

Refractive index [1]: 1.348
Compound: CCCCCCCCC(F)(F)C(F)(F)C(F)(F)C(F)(F)F [Example F4H8]

Refractive index [1]: 1.3357
Compound: CCCCCCCC(F)(F)C(F)(F)C(F)(F)C(F)(F)F [Example F4H7]

Refractive index [1]: 1.334
Compound: CCCCCCC(F)(F)C(F)(F)C(F)(F)C(F)(F)F [Example F4H6]

Refractive index [1]: 1.3494
Compound: CCCCCCCCCC(F)(F)C(F)(F)C(F)(F)C(F)(F)C(F)(F)C(F)(F)F [Example F6H9]

Refractive index [1]: 1.3432
Droplet volume ([5]; Eye dropper (Hylo-Vision)): 10.3 ± 0.3 µL
Droplet weight ([5]; Eye dropper (Hylo-Vision)): 13.7 ± 0.4 mg
Droplet volume ([5]; Glass pipette): 5.0 ± 0.4 µL
Droplet weight ([5]; Glass pipette, 10 tests): 6.6 ± 0.6 mg
Droplet volume ([5]; Injection needle 20 G): 2.5 ± 0.1 µL
Droplet weight ([5]; Injection needle 20 G): 3.4 ± 0.2 mg
Compound: CCCCCCCCC(F)(F)C(F)(F)C(F)(F)C(F)(F)C(F)(F)C(F)(F)F [Example F6H8]
Healing of corneal lesions [2]: all lesions healed fully during the experimental time
